One series addresses T1, CgChoA (Chryseobacterium gleum, UniProt A0ABP2IT22).
T1 construct: gene HMPREF0204_11499
T1 sequence (A0ABP2IT22 1-528): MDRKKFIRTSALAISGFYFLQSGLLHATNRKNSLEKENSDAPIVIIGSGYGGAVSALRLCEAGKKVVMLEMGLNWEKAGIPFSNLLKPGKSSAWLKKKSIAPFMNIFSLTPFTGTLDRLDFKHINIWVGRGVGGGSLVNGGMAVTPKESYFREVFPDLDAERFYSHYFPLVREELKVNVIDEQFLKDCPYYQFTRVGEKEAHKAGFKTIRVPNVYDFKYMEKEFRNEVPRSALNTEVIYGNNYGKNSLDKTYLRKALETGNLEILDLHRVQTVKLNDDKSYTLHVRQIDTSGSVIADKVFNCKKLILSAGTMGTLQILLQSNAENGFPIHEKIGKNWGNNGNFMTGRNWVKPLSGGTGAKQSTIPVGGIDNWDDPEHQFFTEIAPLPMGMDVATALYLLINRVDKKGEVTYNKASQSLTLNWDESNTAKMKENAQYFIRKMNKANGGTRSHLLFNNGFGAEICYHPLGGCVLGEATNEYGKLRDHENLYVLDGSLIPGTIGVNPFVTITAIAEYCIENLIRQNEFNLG
The series is described as follows: UV-vis spectrum of purified protein and of supernatant after boiling. The format is binding. To be noted: co-purified cofactor; non-covalently bound.

Substrate in series [1]: CC(C)CCC[C@@H](C)[C@H]1CC[C@H]2[C@@H]3CC=C4C[C@@H](O)CC[C@]4(C)[C@H]3CC[C@]12C
The series is described as follows: HRP-coupled H2O2 assay, initial rates. The class given is biochemical, Chryseobacterium gleum. To be noted: cholesterol dispersed in water with taurocholate as sole surfactant, 0.011 M MOPS pH 6.75, 35°C, O2 as co-substrate.

On to `Cc1cc2nc3c(=O)[nH]c(=O)nc-3n(C[C@H](O)[C@H](O)[C@H](O)COP(=O)(O)OP(=O)(O)OC[C@H]3O[C@@H](n4cnc5c(N)ncnc54)[C@H](O)[C@@H]3O)c2cc1C` [FAD], for which the “UV-vis spectrum of purified protein and of supernatant after boiling” value at CgChoA is given as “Only FAD that is non-covalently associated with the enzyme is detectable by this method”.

B1: CgChoA (Chryseobacterium gleum ATCC 35910) (protein)
chain: T1 sequence (A0ABP2IT22 1-528)
As usually defined, the Km is the substrate concentration at which the rate is half of its maximum. As for B1, the Km in series [1] was found to be 500 µM.

These data come from article PMC4053396, “Cloning, expression and biochemical characterization of the cholesterol oxidase CgChoA from Chryseobacterium gleum” (BMC Biotechnology, 2014).
